Test results taken from patent US20260263554A1, “COMPOSITION COMPRISING CPNE7 PROTEIN OR CPNE7 PROTEIN-DERIVED PEPTIDE FOR REMOVING REACTIVE OXYGEN SPECIES IN CELLS” (HYSENSBIO CO., LTD, priority 2022, published 2026).

Assays:
CCD986SK cells [1] = assay: Amount of living cells by WST-8 in dermal fibroblasts; type: cell-based; settings: 1 mM H2O2, 1, 10, 100 and 500 μg/mL Selcopintide, 24 hours, compared to H2O2-only-treated group
Experimental: Cultured CCD986SK cells were seeded into 96-well plates at a density of 3×10^3 cells per well, cultured for 24 hours, and then treated with 1 mM hydrogen peroxide (H2O2) and treated with Selcopintide at concentrations of 1 μg/mL, 10 μg/mL, 100 μg/mL, and 500 μg/mL for 24 hours. Untreated CCD986SK cells were used as the control.
The WST-8 solution was added to each well and allowed to react for one hour, and then absorbance was measured at 450 nm using a microplate reader and compared.

[2] = test system: endogenous antioxidant enzymes in hDPC cells; assay: mRNA levels of endogenous antioxidant enzymes by RT-PCR; type: cell-based, human; settings: hDPCs, 1 mM H2O2, CPNE7 recombinant protein 100 ng/mL or Selcopintide 10 ug/mL
Experimental: Cultured hDPCs were seeded into 60 mm culture dishes at a density of 4×10^5 cells, cultured for 24 hours, and then treated with 1 mM H2O2 and treated with the CPNE7 recombinant protein (100 ng/mL) and Selcopintide (10 ug/mL). After 30 minutes and one hour, the mRNA levels of Sod1, 2, and 3, catalase, Gpx7, Hmox1, and Txmd1 were checked.

[3] = test system: Human dental pulp cells (hDPCs); assay: Optical microscope observation of hDPCs after H2O2 and test substance; type: cell-based; settings: 24 hours
Experimental: Human dental pulp cells (hDPCs) were cultured in an α-MEM medium containing 10% FBS under 37° C. and 5% CO2 conditions.
hDPCs were seeded into 35 mm culture dishes at a density of 1×10^5 cells, cultured for 24 hours, treated with H2O2 at a concentration of 5 uM, 100 uM, 1 mM, or 2 mM, respectively, and then treated with 100 ng/ml of a recombinant CPNE7 protein and cultured for 24 hours. After the culture was completed, the cultured cells were washed with PBS, and observed using an optical microscope. At this time, the hDPCs cultured without treating the recombinant CPNE7 protein (rCPNE7) were used as the control.
Cultured hDPC cells were seeded into 6-well plates at a density of 1×10^5 cells per well, cultured for 24 hours, and then treated with 1 mM hydrogen peroxide (H2O2) and treated with Selcopintide at concentrations of 1 μg/mL, 10 μg/mL, 100 μg/mL, and 500 μg/mL for 24 hours. Untreated hDPCs were used as the control.

CCD986SK cells [4] = assay: B-gal staining, cell aging in dermal fibroblasts; type: cell-based; settings: 1 mM H2O2, Selcopintide 1, 10, 100 and 500 μg/mL, 24 hours, compared to H2O2-only-treated group
Experimental: Cultured CCD986SK cells were seeded into 6-well plates at a density of 1×10^5 cells, cultured for 24 hours, and then treated with 1 mM H2O2 and treated with 1 μg/mL, 10 μg/mL, 100 μg/mL, and 500 μg/mL of Selcopintide. After 24 hours, the cells were fixed with 4% paraformaldehyde.
B-gal staining was performed on the fixed cells for 24 hours to compare the degrees of cell aging. 24 hours after treatment with 1 mM H2O2, a large number of B-gal positive CCD986SK cells were identified.

hDPC cells = assay: Amount of living cells by WST-8; type: cell-based, human; settings: hDPCs, 1 mM H2O2, 1 μg/mL and 10 μg/mL Selcopintide, 24 hours; compared to H2O2-only-treated group
Experimental: Cultured hDPC cells were seeded into 96-well plates at a density of 3×10^3 cells per well, cultured for 24 hours, and then treated with 1 mM hydrogen peroxide (H2O2) and treated with Selcopintide at concentrations of 1 μg/mL, 10 μg/mL, 100 μg/mL, and 500 μg/mL for 24 hours. Untreated hDPCs were used as the control.
(§1) The WST-8 solution was added to each well and allowed to react for 1 hour, and then absorbance was measured at 450 nm using a microplate reader and compared.

hDPCs [5] = assay: Immunofluorescence staining with γ-H2A.X (DNA damage marker); type: cell-based, human; settings: 1 mM H2O2, 10 μg/mL Selcopintide, 24 hours, vs 1 mM H2O2 group
Experimental: Cultured hDPCs were seeded into 35 mm culture dishes for a confocal microscope at a density of 1×10^5 cells, cultured for 24 hours, and then treated with 1 mM H2O2 and treated with 100 ng/mL of rCPNE7. After 24 hours, the cells were fixed with 4% paraformaldehyde.
Immunofluorescence staining using a γ-H2A.X antibody was performed on the fixed cells to compare intensity.
Cultured hDPCs were seeded into 35 mm culture dishes for a confocal microscope at a density of 1×10^5 cells, cultured for 24 hours, and then treated with 1 mM H2O2 and treated with 10 μg/mL of Selcopintide. After 24 hours, the cells were fixed with 4% paraformaldehyde.

H9C2 cells [6] = assay: B-gal staining, cell aging in cardiomyocytes; type: cell-based; settings: H9C2, 1 mM H2O2, Selcopintide 1, 10, 100 and 500 μg/mL, 24 hours; compared to H2O2-only-treated group
Experimental: Cultured H9C2 was seeded into 6-well plates at a density of 1×10^5 cells, cultured for 24 hours, and then treated with 1 mM H2O2 and treated with 1 μg/mL, 10 μg/mL, 100 μg/mL, and 500 μg/mL of Selcopintide. After 24 hours, the cells were fixed with 4% paraformaldehyde.
Next, B-gal staining was performed on the fixed cells for 24 hours to compare the degree of cell aging. 24 hours after treatment with 1 mM H2O2, a large number of B-gal positive H9C2 cells were identified.

hDPCs [7] = assay: Reactive oxygen species level with DCFDA, confocal microscope; type: cell-based, human; settings: 1 mM H2O2, 10 μg/mL Selcopintide, imaged for approximately one hour
Experimental: Cultured hDPCs were seeded into 35 mm culture dishes for a confocal microscope at a density of 1×10^5 cells, cultured for 24 hours, and then treated with 1 mM H2O2 and treated with 100 ng/mL of rCPNE7. Then, images were taken for approximately one hour using a confocal microscope.
Cultured hDPCs were seeded into 35 mm culture dishes for a confocal microscope at a density of 1×10^5 cells, cultured for 24 hours, and then treated with 1 mM H2O2 and treated with 10 μg/mL of Selcopintide. Thereafter, images were taken for approximately one hour using a confocal microscope.

H9C2 cells [8] = assay: Amount of living cells by WST-8 in cardiomyocytes; type: cell-based; settings: H9C2, 1 mM H2O2, 1, 10, 100 and 500 μg/mL Selcopintide, 24 hours; compared to H2O2-only-treated group
Experimental: Cultured H9C2 cells were seeded into 96-well plates at a density of 3×10^3 cells per well, cultured for 24 hours, and then treated with 1 mM hydrogen peroxide (H2O2) and treated with Selcopintide at concentrations of 1 μg/mL, 10 μg/mL, 100 μg/mL, and 500 μg/mL for 24 hours. Untreated H9C2 cells were used as the control.
as §1

[9] = test system: cardiomyocytes (H9C2 cell line); assay: Optical microscope observation of cardiomyocytes after H2O2 and Selcopintide; type: cell-based; settings: H9C2, 1 mM H2O2, Selcopintide 1, 10, 100 and 500 μg/mL, 24 hours; compared to H2O2-only-treated group
Experimental: Cultured H9C2 cells were seeded into 6-well plates at a density of 1×10^5 cells per well, cultured for 24 hours, and then treated with 1 mM hydrogen peroxide (H2O2) and treated with Selcopintide at concentrations of 1 μg/mL, 10 μg/mL, 100 μg/mL, and 500 μg/mL for 24 hours. Untreated H9C2 cells were used as the control.

[10] = test system: dermal fibroblast (CCD986SK) cells; assay: Optical microscope observation of dermal fibroblasts after H2O2 and Selcopintide; type: cell-based; settings: 24 hours
Experimental: Cultured CCD986SK cells were seeded into 6-well plates at a density of 1×10^5 cells per well, cultured for 24 hours, and then treated with 1 mM hydrogen peroxide (H2O2) and treated with Selcopintide at concentrations of 1 μg/mL, 10 μg/mL, 100 μg/mL, and 500 μg/mL for 24 hours. Untreated CCD986SK cells were used as the control.

[11] = 1 mM H2O2, Selcopintide 1, 10, 100 and 500 μg/mL, compared to H2O2-only-treated group

With “KYKQKRRSYK (Novel peptide) [Selcopintide]” the “cell viability (WST-8, absorbance 450 nm)” value (CCD986SK cells [1]) was “significantly higher”, the “mRNA of endogenous antioxidant enzymes Sod1, 2, and catalase” value ([2]; after 30 minutes, compared to H2O2-only-treated group) was “significantly increased” and the “mRNA of Sod1 and Gpx7, and Hmox1 and Txrnd1” value ([2]; after one hour) was “significantly increased”. For the same sequence, the “cell viability (optical microscope)” value ([3]; 1 mM H2O2, 1 μg/mL and 10 μg/mL treatment groups) was “high”, the “cell viability (optical microscope)” value [3, 11] was “higher” and the “number of B-gal positive CCD986SK cells” value (CCD986SK cells [4]) was “significantly reduced”. For the same sequence, the “cell viability (WST-8, absorbance 450 nm)” value (hDPC cells) was “significantly higher”, the “accumulation of DNA damage (γ-H2A.X intensity)” value (hDPCs [5]) was “significantly reduced” and the “number of B-gal positive H9C2 cells” value (H9C2 cells [6]) was “significantly reduced”. For the same sequence, the “amount of reactive oxygen species (DCFDA)” value (hDPCs [7]) was “decreased and became significant at approximately one hour”, the “cell viability (WST-8, absorbance 450 nm)” value (H9C2 cells [8]) was “significantly higher” and the “cell viability (optical microscope)” value [9] was “higher”. The “significance of higher cell viability (optical microscope)” value ([10]; 1 mM H2O2, 1 μg/mL and 10 μg/mL of Selcopintide) was “highest” and the “cell viability (optical microscope)” value [10, 11] was “higher”.
